The numbers were not newly measured in patent US6869615B2, “Pharmaceutical formulations containing a non-steroidal antiinflammatory drug and a proton pump inhibitor” (Andrx Labs LLC, priority 2000, dated 2005), which cites them from elsewhere.

`O=C(O)Cc1ccccc1Nc1c(Cl)cccc1Cl` [diclofenac]: the “patients with side effects that require cessation of medication” value (NSAIDs such as diclofenac) is “about 20%”. Turning to `CN1C(C(=O)Nc2ccccn2)=C(O)c2ccccc2S1(=O)=O` [piroxicam], the “patients who experience gross bleeding and ulceration” value (chronic use, Langman et al, Lancet 1994) is on record as “up to 4%”.
